Counter-ions that a name gives are not always drawn.
Molecular target: serotonin transporter (Rattus norvegicus, UniProt P31652)
Assay: Serotonin transporter/uptake assay: synaptosomal uptake of 3H-5-hydroxytryptamine
Assay type: biochemical
Conditions: not given
Method: In this example the biological activity of the compounds of the invention are determined using a serotonin transporter/uptake assay. Serotonin transporters/uptake sites on nerve terminals presumably function to terminate neuronal signaling by removing serotonin from the synaptic cleft. The activity of the serotonin transporter integral protein can be measured in vitro by synaptosomal uptake of ^3H-5-hydroxytryptamine.
Preparations are performed at 0-4° C. Cerebral cortices from male Wistar rats (150-200 g) are homogenized for 5-10 seconds in 100 volumes of ice-cold 0.32 M sucrose containing 1 mM pargyline, and using a motor driven teflon pestle in a glass homogenizing vessel.
Monoamine oxidase activity becomes inhibited by pargyline.
The homogenate is centrifuged at 1000×g for 10 minutes. The resulting supernatant is subjected to centrifugation at 27,000×g for 50 minutes, and the supernatant is discarded. The pellet (P2) is re-suspended in oxygenated (equilibrated with an atmosphere of 96% O2: 4% CO2 for at least 30 minutes) Krebs-Ringer incubation buffer (1000 ml per g of original tissue) at pH 7.2, containing 122 mM NaCl, 0.16 mM EDTA, 4.8 mM KCl, 12.7 mM Na2HPO4, 3.0 mM NaH2PO4, 1.2 mM MgSO4, 1 mM CaCl2, 10 mM glucose and 1 mM ascorbic acid.
Aliquots of 4.0 ml tissue suspension are added to 100 μl of test solution and 100 μl of ^3H-5-HT (1 nM, final concentration), mixed and incubated for 30 minutes at 37° C. Non-specific uptake is determined using Citalopram (1 μM, final concentration; Available from H. Lundbeck, Denmark), a serotonin reuptake inhibitor.
After incubation the samples are poured directly onto Whatman GF/C glass fibre filters under suction. The filters are washed three times with 5 ml of ice-cold 0.9% (w/v) NaCl solution.
The amount of radioactivity on the filters is determined by conventional liquid scintillation counting. Specific uptake is calculated as the difference between total uptake and non-specific uptake.
25-75% inhibition of specific binding must be obtained, before calculation of an IC50.
The test value is presented as IC50 (the concentration (μM) of the test substance which inhibits the specific binding of ^3H-5-HT by 50%), calculated according to the following equation: […]
where Co is specific binding in control assays and Cx is the specific binding in the test assay (the calculations assume normal mass-action kinetics).

serotonin transporter, sequence (P31652 whole entry): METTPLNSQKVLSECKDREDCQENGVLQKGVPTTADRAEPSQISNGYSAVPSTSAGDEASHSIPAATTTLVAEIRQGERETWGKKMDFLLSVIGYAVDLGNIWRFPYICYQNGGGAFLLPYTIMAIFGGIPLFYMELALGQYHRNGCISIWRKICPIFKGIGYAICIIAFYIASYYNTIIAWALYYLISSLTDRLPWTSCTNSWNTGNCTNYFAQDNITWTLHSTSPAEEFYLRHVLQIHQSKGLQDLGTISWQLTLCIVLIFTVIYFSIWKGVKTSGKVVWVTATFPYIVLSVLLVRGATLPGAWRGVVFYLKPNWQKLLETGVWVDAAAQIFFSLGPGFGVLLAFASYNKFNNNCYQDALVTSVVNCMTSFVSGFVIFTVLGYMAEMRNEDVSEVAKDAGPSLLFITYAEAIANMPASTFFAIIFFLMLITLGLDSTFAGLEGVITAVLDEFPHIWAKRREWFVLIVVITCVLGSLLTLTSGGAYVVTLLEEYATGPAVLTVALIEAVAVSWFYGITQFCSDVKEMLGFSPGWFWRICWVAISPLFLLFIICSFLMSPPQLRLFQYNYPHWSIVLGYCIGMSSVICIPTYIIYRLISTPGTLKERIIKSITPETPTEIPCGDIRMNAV

Compound	IC50
c1ccc2nc(N3C[C@@H]4C[C@H]3CN4)ccc2c1 [Compound 1, 2-(2-Quinolinyl)-(1S,4S)-2,5-diazabicyclo-[2.2.1]-heptane fumaric acid salt]	0.088 µM
O=[N+]([O-])c1ccc2nc(N3C[C@@H]4C[C@H]3CN4)ccc2c1 [Compound 3, 2-(6-Nitro-2-quinolinyl)-(1S,4S)-2,5-diazabicyclo-[2.2.1]-heptane fumaric acid salt]	0.00024 µM
CN1C[C@@H]2C[C@H]1CN2c1ccc2cc([N+](=O)[O-])ccc2n1 [Compound 4, 2-(6-Nitro-2-quinolinyl)-5-methyl-(1S,4S)-2,5-diazabicyclo-[2.2.1]-heptane fumaric acid salt]	0.0034 µM

Same assay, conditions: synaptosomes from cerebral cortices of male Wistar rats; 3H-5-HT 1 nM; 30 minutes at 37° C.; read-out: Serotonin uptake IC50

Compound	IC50
CN1C[C@@H]2C[C@H]1CN2c1ccc2ccccc2n1 [Compound 2, 2-(2-Quinolinyl)-5-methyl-(1S,4S)-2,5-diazabicyclo-[2.2.1]-heptane]	0.13 µM
CN1C[C@@H]2C[C@H]1CN2c1ccc2cc(N)ccc2n1 [Compound 5, 2-(6-Amino-2-quinolinyl)-5-methyl-(1S,4S)-2,5-diazabicyclo-[2.2.1]-heptane fumaric acid salt]	0.84 µM
c1ccc2sc(N3C[C@@H]4C[C@H]3CN4)nc2c1 [Compound 7, 2-(2-Benzothiazolyl)-(1S,4S)-2,5-diazabicyclo-[2.2.1]-heptane fumaric acid salt]	0.35 µM

— patent US7329754B2, “2,5-diazabicyclo[2.2.1]heptane derivatives” (Neurosearch A/S, priority 2001, dated 2008)
